Data published in patent US8604218B2, “Cytoskeletal active rho kinase inhibitor compounds, composition and use” (Inspire Pharmaceuticals, Inc., priority 2006, dated 2013).

Each molecule was assayed on NIH/3T3 cells (assay: NIH/3T3 Cell Morphology Assay (actin disruption)). Details: 1 μM test compound, 60 minutes at 37° C.; score of actin cytoskeleton disruption from 0 (no effect) to 4 (complete disruption), average of at least 2 determinations.
Assay type: cell-based
Experimental: NIH/3T3 cells were grown in DMEM-H containing glutamine and 10% Colorado Calf Serum. Cells were passaged regularly prior to reaching confluence. Eighteen to 24 hours prior to experimentation, the cells were plated onto Poly-L-Lysine-coated glass bottom 24-well plates. On the day of experimentation, the cell culture medium was removed and was replaced with the same medium containing from 10 nM to 25 μM of the test compound, and the cells were incubated for 60 minutes at 37° C. The culture medium was then removed and the cells were washed with warmed PBS and fixed for 10 minutes with warmed 4% paraformaldehyde. The cells were permeabilized with 0.5% Triton-X, stained with TRITC-conjugated phalloidin and imaged using a Nikon Eclipse E600 epifluorescent microscope to determine the degree of actin disruption. Results were expressed as a numerical score indicating the observed degree of disruption of the actin cytoskeleton at the test concentration, ranging from 0 (no effect) to 4 (complete disruption), and were the average of at least 2 determinations.
All compounds tested show measurable activity in the cell morphology assay, with most of the compounds providing substantial effects on the actin cytoskeleton at the testing concentration (score of 2 at 1 μM). […] These morphology changes are thought to provide the basis for the beneficial pharmacological effects sought in the setting of the disease processes described in this application, specifically the lowering of elevated IOP in hypertensive eyes via increased outflow through the trabecular meshwork.

| SMILES | Cell score at 1 μM |
| --- | --- |
| N#Cc1cccc(CN2CCC(Nc3ccc4[nH]ncc4c3)C2)c1 (stereo not shown) [Compound 1.005, 3-((3-(1H-indazol-5-ylamino)pyrrolidin-1-yl)methyl)benzonitrile] | 1.3 |
| CC(=O)Nc1ccc(CN2CCC(Nc3ccc4[nH]ncc4c3)C2)cc1 (stereo not shown) [Compound 1.006, N-(4-((3-(1H-indazol-5-ylamino)pyrrolidin-1-yl)methyl)phenyl)acetamide] | 2 |
| N#Cc1cccc(CN2CCCC(Nc3ccc4[nH]ncc4c3)C2)c1 (stereo not shown) [Compound 1.002, 3-((3-(1H-indazol-5-ylamino)piperidin-1-yl)methyl)benzonitrile] | 1.4 |

The molecules below were run against ROCK2 (Homo sapiens (Human), UniProt O75116) (assay: Rho Kinase Inhibition Assay (IMAP fluorescence polarization)). Details: isolated enzyme, 10 μM ATP, 60 minutes at room temperature.
Assay type: biochemical

Sequence of ROCK2 (O75116 11-552): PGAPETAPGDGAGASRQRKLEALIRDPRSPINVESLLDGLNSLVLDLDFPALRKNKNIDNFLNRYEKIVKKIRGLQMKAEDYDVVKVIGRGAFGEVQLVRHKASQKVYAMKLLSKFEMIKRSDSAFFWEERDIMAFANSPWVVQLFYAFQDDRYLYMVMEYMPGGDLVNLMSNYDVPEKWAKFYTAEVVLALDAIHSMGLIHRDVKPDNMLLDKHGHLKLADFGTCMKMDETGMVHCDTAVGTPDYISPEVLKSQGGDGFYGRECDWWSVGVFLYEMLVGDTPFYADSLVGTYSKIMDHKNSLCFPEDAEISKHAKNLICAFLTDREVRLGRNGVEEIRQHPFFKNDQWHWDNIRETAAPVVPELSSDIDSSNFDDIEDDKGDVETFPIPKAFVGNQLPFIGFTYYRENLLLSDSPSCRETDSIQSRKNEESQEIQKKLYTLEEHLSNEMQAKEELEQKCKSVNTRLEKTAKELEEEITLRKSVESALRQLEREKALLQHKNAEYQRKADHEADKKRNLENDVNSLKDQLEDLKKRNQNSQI

| IC50 | SMILES |
| --- | --- |
| 2710 nM | OCCOc1cccc(CN2CCC(Nc3ccc4[nH]ncc4c3)CC2)c1 [Compound 1.130, 2-(3-((4-(1H-indazol-5-ylamino)piperidin-1-yl)methyl)phenoxy)ethanol] |
| 3060 nM | CS(=O)(=O)Nc1cccc(CN2CCC[C@H](Nc3cccc4cnccc34)C2)c1 [Compound 2.037, (S)-N-(3-((3-(isoquinolin-5-ylamino)piperidin-1-yl)methyl)phenyl)methanesulfonamide] |
| 273 nM | NC(=O)COc1cccc(CN2CC[C@@H](Nc3cccc4cnccc34)C2)c1 [Compound 2.040, (R)-2-(3-((3-(isoquinolin-5-ylamino)pyrrolidin-1-yl)methyl)phenoxy)acetamide] |
| 1490 nM | OCCn1ccc2cc(CN3CCCC(Nc4ccc5[nH]ncc5c4)C3)ccc21 (stereo not shown) [Compound 1.114, 2-(5-((3-(1H-indazol-5-ylamino)piperidin-1-yl)methyl)-1H-indol-1-yl)ethanol] |
| 254 nM | CC(=O)NCc1cccc(CN2CCCC(Nc3ccc4[nH]ncc4c3)C2)c1 (stereo not shown) [Compound 1.122, N-(3-((3-(1H-indazol-5-ylamino)piperidin-1-yl)methyl)benzyl)acetamide] |
| 4190 nM | FC(F)(F)c1cccc(CN2CCCC(Nc3cccc4cnccc34)C2)c1 (stereo not shown) [Compound 2.015, N-(1-(3-(trifluoromethyl)benzyl)piperidin-3-yl)isoquinolin-5-amine] |
| 311 nM | c1cc(N[C@@H]2CCN(Cc3ccc(C4CC4)cc3)C2)c2ccncc2c1 [Compound 2.022, (R)-N-(1-(4-cyclopropylbenzyl)pyrrolidin-3-yl)isoquinolin-5-amine] |
| 4090 nM | c1cc(CN2CCCC(Nc3cccc4cnccc34)C2)cc(C2CC2)c1 (stereo not shown) [Compound 2.011, N-(1-(3-cyclopropylbenzyl)piperidin-3-yl)isoquinolin-5-amine] |
| 367 nM | OCCn1ccc2ccc(CN3CCC[C@@H](Nc4ccc5[nH]ncc5c4)C3)cc21 [Compound 1.108, (R)-2-(6-((3-(1H-indazol-5-ylamino)piperidin-1-yl)methyl)-1H-indol-1-yl)ethanol] |
| 101 nM | OCCOc1cccc(CN2CC[C@@H](Nc3cccc4cnccc34)C2)c1 [Compound 2.039, (R)-2-(3-((3-(isoquinolin-5-ylamino)pyrrolidin-1-yl)methyl)phenoxy)ethanol] |
| 3620 nM | N#Cc1cccc(CN2CCC(Nc3cccc4cnccc34)C2)c1 (stereo not shown) [Compound 2.007, 3-((3-(isoquinolin-5-ylamino)pyrrolidin-1-yl)methyl)benzonitrile] |
| 1400 nM | C[C@@H](O)COc1cccc(CN2CCC[C@H](Nc3ccc4[nH]ncc4c3)C2)c1 [Compound 1.118, (R)-1-(3-(((S)-3-(1H-indazol-5-ylamino)piperidin-1-yl)methyl)phenoxy)propan-2-ol] |

Further lines, the molecule ahead of its results:

| SMILES | IC50 |
| --- | --- |
| N#Cc1cccc(CN2CCC(Nc3ccc4[nH]ncc4c3)C2)c1 (stereo not shown) [Compound 1.005, 3-((3-(1H-indazol-5-ylamino)pyrrolidin-1-yl)methyl)benzonitrile] | 2290 nM |
| NCc1cccc(CN2CCCC(Nc3ccc4[nH]ncc4c3)C2)c1 (stereo not shown) [Compound 1.061, N-(1-(3-(aminomethyl)benzyl)piperidin-3-yl)-1H-indazol-5-amine] | 282 nM |
| CS(=O)(=O)Nc1cccc(CN2CCCC(Nc3ccc4[nH]ncc4c3)C2)c1 (stereo not shown) [Compound 1.051, N-(3-((3-(1H-indazol-5-ylamino)piperidin-1-yl)methyl)phenyl)methanesulfonamide] | 62.6 nM |
| C#Cc1ccc(CN2CCCC(Nc3ccc4[nH]ncc4c3)C2)cc1O (stereo not shown) [Compound 1.083, 5-((3-(1H-indazol-5-ylamino)piperidin-1-yl)methyl)-2-ethynylphenol] | 7310 nM |
| Oc1cc(CN2CCCC(Nc3ccc4[nH]ncc4c3)C2)ccc1I (stereo not shown) [Compound 1.068, 5-((3-(1H-indazol-5-ylamino)piperidin-1-yl)methyl)-2-iodophenol] | 660 nM |
| CC(=O)Nc1ccc(CN2CCC(Nc3ccc4[nH]ncc4c3)C2)cc1 (stereo not shown) [Compound 1.006, N-(4-((3-(1H-indazol-5-ylamino)pyrrolidin-1-yl)methyl)phenyl)acetamide] | 2750 nM |
| CS(=O)(=O)Nc1cccc(CN2CCC(Nc3ccc4[nH]ncc4c3)C2)c1 (stereo not shown) [Compound 1.087, N-(3-((3-(1H-indazol-5-ylamino)pyrrolidin-1-yl)methyl)phenyl)methanesulfonamide] | 280 nM |
| OCCOc1cccc(CN2CCC[C@H](Nc3ccc4[nH]ncc4c3)C2)c1 [Compound 1.090, (S)-2-(3-((3-(1H-indazol-5-ylamino)piperidin-1-yl)methyl)phenoxy)ethanol] | 354 nM |
| Cc1cccc(CN2CCCC(Nc3ccc4[nH]ncc4c3)C2)c1 (stereo not shown) [Compound 1.066, N-(1-(3-methylbenzyl)piperidin-3-yl)-1H-indazol-5-amine] | 232 nM |
| CS(=O)(=O)Nc1cc(CN2CCCC(Nc3ccc4[nH]ncc4c3)C2)ccc1Cl (stereo not shown) [Compound 1.102, N-(5-((3-(1H-indazol-5-ylamino)piperidin-1-yl)methyl)-2-chlorophenyl)methanesulfonamide] | 34.3 nM |
| c1cc2cc(CN3CCCC(Nc4ccc5[nH]ncc5c4)C3)ccc2o1 (stereo not shown) [Compound 1.052, N-(1-(benzofuran-5-ylmethyl)piperidin-3-yl)-1H-indazol-5-amine] | 15.3 nM |
| COc1ccccc1CN1CCCC(Nc2ccc3[nH]ncc3c2)C1 (stereo not shown) [Compound 1.067, N-(1-(2-methoxybenzyl)piperidin-3-yl)-1H-indazol-5-amine] | 1850 nM |
| CS(=O)(=O)Nc1cccc(CN2CC[C@@H](Nc3ccc4[nH]ncc4c3)C2)c1 [Compound 1.097, (R)-N-(3-((3-(1H-indazol-5-ylamino)pyrrolidin-1-yl)methyl)phenyl)methanesulfonamide] | 276 nM |
| C=Cc1ccc(CN2CCCC(Nc3ccc4[nH]ncc4c3)C2)cc1 (stereo not shown) [Compound 1.037, N-(1-(4-vinylbenzyl)piperidin-3-yl)-1H-indazol-5-amine] | 69.5 nM |
| Clc1ccc(CN2CCC[C@H](Nc3ccc4[nH]ncc4c3)C2)cc1 [Compound 1.081, (S)-N-(1-(4-chlorobenzyl)piperidin-3-yl)-1H-indazol-5-amine] | 30.1 nM |
| OCCCOc1cccc(CN2CCCC(Nc3ccc4[nH]ncc4c3)C2)c1 (stereo not shown) [Compound 1.084, 3-(3-((3-(1H-indazol-5-ylamino)piperidin-1-yl)methyl)phenoxy)propan-1-ol] | 274 nM |
| CS(=O)(=O)Cc1ccc(CN2CCCC(Nc3ccc4[nH]ncc4c3)C2)cc1 (stereo not shown) [Compound 1.029, N-(1-(4-(methylsulfonylmethyl)benzyl)piperidin-3-yl)-1H-indazol-5-amine] | 11700 nM |
| FC(F)(F)c1cccc(Oc2cccc(CN3CCCC(Nc4ccc5[nH]ncc5c4)C3)c2)c1 (stereo not shown) [Compound 1.070, N-(1-(3-(3-(trifluoromethyl)phenoxy)benzyl)piperidin-3-yl)-1H-indazol-5-amine] | 6680 nM |
| Brc1ccc(Br)c(CN2CCCC(Nc3ccc4[nH]ncc4c3)C2)c1 (stereo not shown) [Compound 1.071, N-(1-(2,5-dibromobenzyl)piperidin-3-yl)-1H-indazol-5-amine] | 5590 nM |
| Cc1ccc(CN2CCCC(Nc3ccc4[nH]ncc4c3)C2)cc1OCCO (stereo not shown) [Compound 1.058, 2-(5-((3-(1H-indazol-5-ylamino)piperidin-1-yl)methyl)-2-methylphenoxy)ethanol] | 47.5 nM |
| c1cc2cc(CN3CCCC(Nc4ccc5[nH]ncc5c4)C3)ccc2[nH]1 (stereo not shown) [Compound 1.100, N-(1-((1H-indol-5-yl)methyl)piperidin-3-yl)-1H-indazol-5-amine] | 42.9 nM |
| N#Cc1cccc(CN2CCCC(Nc3ccc4[nH]ncc4c3)C2)c1 (stereo not shown) [Compound 1.002, 3-((3-(1H-indazol-5-ylamino)piperidin-1-yl)methyl)benzonitrile] | 1230 nM |
| CS(=O)(=O)Cc1cccc(CN2CCCC(Nc3ccc4[nH]ncc4c3)C2)c1 (stereo not shown) [Compound 1.041, N-(1-(3-(methylsulfonylmethyl)benzyl)piperidin-3-yl)-1H-indazol-5-amine] | 137 nM |
| Nc1cc(CN2CCCC(Nc3ccc4[nH]ncc4c3)C2)ccc1Cl (stereo not shown) [Compound 1.089, N-(1-(3-amino-4-chlorobenzyl)piperidin-3-yl)-1H-indazol-5-amine] | 29.4 nM |
| CS(=O)(=O)c1cccc(CN2CCCC(Nc3ccc4[nH]ncc4c3)C2)c1 (stereo not shown) [Compound 1.048, N-(1-(3-(methylsulfonyl)benzyl)piperidin-3-yl)-1H-indazol-5-amine] | 721 nM |
| Fc1ccc(CN2CCC[C@@H](Nc3ccc4[nH]ncc4c3)C2)cc1F [Compound 1.073, (R)-N-(1-(3,4-difluorobenzyl)piperidin-3-yl)-1H-indazol-5-amine] | 111 nM |
| C#Cc1cccc(CN2CCCC(Nc3ccc4[nH]ncc4c3)C2)c1 (stereo not shown) [Compound 1.047, N-(1-(3-ethynylbenzyl)piperidin-3-yl)-1H-indazol-5-amine] | 57 nM |
| Brc1cccc(CN2CCCC(Nc3ccc4[nH]ncc4c3)C2)c1 (stereo not shown) [Compound 1.045, N-(1-(3-bromobenzyl)piperidin-3-yl)-1H-indazol-5-amine] | 586 nM |
